Laboratory results as given in patent publication US20100204295A1, “TREATMENT OF ALLERGIC DISEASE WITH IMMUNOMODULATOR COMPOUNDS” (SCICLONE PHARMACEUTICALS, INC., priority 2007, published 2010).

What was measured:
[1] = tested on: goblet cells in the epithelium of the bronchi; test: Percentage of goblet cells in the epithelium of the bronchi, ovalbumin asthma model; assay type: in vivo, mice of the Balb/C line
Excerpt: Female, non-pathogenic mice of the Balb/C line (“Pushchtino” laboratory animal breeders) were kept under conditions of an SPF-vivarium at a constant temperature, 12-hour day/night cycle, and received sterile feed and water ad libitum. In two series of experiments, mice from 6-8 weeks and 18-20 weeks of age were used at the beginning of the experiment, respectively. The animals were immunized twice at 5-day intervals with an ovalbumin solution (Sigma) in an adjuvant based on ammonium sulfate at a dosage of 8 μg per mouse. SCV-07 was administered intra-abdominally in a volume of 200 μL at a dosage of 0.1 or 1.0 μg/kg in PBS once a day from 6 through 11 days after the first immunization. The control group received physiological saline on the same days. Each group comprised 6 to 10 animals. On the 12th, 16th and 20th days after the first immunization, the animals were then placed in a hermetic box, in which an aerosol of 1% ovalbumin solution (OvA) in PBS was generated with an ultrasonic nebulizer LD-207U (Little Doctor) for 1 minute with continuous mixing of air. The duration of exposure of the animals to the aerosol was 15 minutes. […] The number of goblet and epithelial cells on the sections of the bronchi were calculated in no less than five visual fields on sections from the lungs from each animal and expressed as the percentage of the total number of cells.

bronchial asthma = assay type: in vivo
Excerpt: Patient B-skii, reported with complaints of dyspnea attacks 6-7 times a day, cough with phlegm that was difficult to discharge, shortness of breath, and nasal obstruction. It is known from the history that, since 1985, they have suffered bronchial asthma, has been hospitalized several times by emergency medical services in the Allergological Department in conjunction with exacerbation of the disease. Since 1997, they have been taking systemic glucocorticoids (Prednisolone 2 tablets/day—maintenance dose). They are also receiving Beklazom LD 250 (up to 1000 μg/day), Flixotide 250 (to 1000 μg/day), prolonged broncholytics (Serevent 25 μg/unit 50 μg/s), Teotard 200 (2 k/day, 400 mg/day). The attacks are treated with salbutamol (Ventolin).
The patient was prescribed the treatment: • 1. Ventolin through a nebulizer during dyspnea attacks—for 2 days, then Astalin (DAI) during dyspnea no more than 3-4 times a day; • 2. Intravenous drip: • 1. Prednisolone 90 nu-60 nu-30 nu in 200.0 mL physiological saline; • 2. Euphylline 2.4%-10.0-5.0 mL. • 3. Heparin 5000 units. • 4. Benacort 200 (800 μg/day). • 5. Prednisolone 4 t/day (8:00, 12:00) • 6. Lazolvan through a nebulizer, then Ambrohexyl 1 t/3 times a day.
During attenuation of the acute condition (on the 8th day of hospitalization), SCV-07 was prescribed in an amount of 0.1 mg in 1.0 mL physiological saline once a day No. 5 daily [sic] intramuscular.
The patient took another examination under dynamic conditions (24 hours after the 5th intramuscular injection of SCV-07): Total blood analysis: erythrocytes—5.12·10^12/L, HB—159 g/L, leukocytes—9.7° 10^9/L, ESR—6 mm/h, b-, e—2%, rod nuclears—5%, segmented nuclears—67%, lymphocytes—20%, M—6%. Blood biochemistry: Sugar—5.7; Total bilirubin—8.9, ALT—0.12, AST—0.13, urea—5.12, creatinine—0.073 General sputum analysis—character—mucous, color gray, consistency viscous, flat epithelium 7-8, alveolar epithelium—none, leukocytes—1-2× in visual field. Hormonal status—cortisol—72.4 Evaluation of immune status

bone marrow cells = settings: cited from earlier work
[2] = tested on: immunization with sheep red blood cells; settings: in vivo; cited from earlier work
[3] = 24 hours after the 5th injection
[4] = after 5 intramuscular injections of 0.1 mg

N[C@H](CCC(=O)N[C@@H](Cc1c[nH]c2ccccc12)C(=O)O)C(=O)O [SCV-07, γ-D-glutamyl-L-tryptophan]
Reduction in the percentage of goblet cells in the epithelium of the bronchi vs control ([1]; 0.1 μg/kg, significant vs control): more than two-fold reduction
% goblet cells of total number of cells (median, minimum-maximum) ([1]; animals 6 to 8 weeks, 1 μg/kg): 36.5 (3-92) %
Immune status: CD3+ (bronchial asthma; [3]): CD3^+- 52
Immune status: CD4+ (bronchial asthma; [3]): CD4^+- 36
Immune status: CD8+ (bronchial asthma; [3]): CD8^+- 15
Immune status: CD16+ (bronchial asthma; [3]): CD16^+- 7
Immune status: CD20+ (bronchial asthma; [3]): CD20^+-11
Immune status: CD25+ (bronchial asthma; [3]): CD25^+-1.3
Immune status: Ig A (bronchial asthma; [3]): Ig A - 1.11
Immune status: Ig G (bronchial asthma; [3]): Ig G - 11.5
Immune status: Ig M (bronchial asthma; [3]): Ig M - 0.9
Immune status: NST (bronchial asthma; [3]): NST - 100/163
Immune status: TSIK (bronchial asthma; [3]): TSIK - 77
Immune status: κ (NST ratio) (bronchial asthma; [3]): κ - 1.6
Immune status: Ig E (bronchial asthma; 24 hours after the 5th injection, 1130.6 on admission): Ig E - 672.1
Clinical dynamics of the disease (bronchial asthma; [4]): elimination of dyspnea attacks, cough, rhinitis
Patient well-being after the course (bronchial asthma; [4]): significant improvement of feeling well-being
Shortness of breath (respiratory rate) (bronchial asthma; after course, 24 per minute on admission): 16 per minute
Expression of Thy-1.2 on bone marrow cells (bone marrow cells): stimulates expression
Effect in a model of immunization with sheep red blood cells [2]: strong immunostimulatory effect
